Laboratory results as given in US20090123561A1, “Fungicide mixtures based on 1-methyl-pyrazol-4-ylcarboxanilides” (BASF AKTIENGESELLLSCHAFT, priority 2005, published 2009).

How the values were obtained:
Assay type in all cases: in vivo
Botrytis cinerea = assay: Activity against gray mold on bell pepper leaves caused by Botrytis cinerea, 1 day protective application; conditions: efficacy in % of untreated control, read after 5 days
Method: (§1) The active compounds, separately or jointly, were prepared as a stock solution comprising 25 mg of active compound which was made up to 10 ml using a mixture of acetone and/or dimethyl sulfoxide and the emulsifier Uniperol® EL (wetting agent having an emulsifying and dispersing action based on ethoxylated alkylphenols) in a ratio by volume of solvent/emulsifier of 99:1. The mixture was then made up to 100 ml with water. This stock solution was diluted with the solvent/emulsifier/water mixture described to give the concentration of active compound stated below.
(§2) Alternatively, the active compounds epoxiconazole and pyraclostrobin were used as a commercial formulation and diluted with water to the stated active compound concentrations.
(§3) The visually determined percentages of infected leaf areas were converted into efficacies in % of the untreated control:
(§4) The efficacy (E) is calculated as follows using Abbot's formula: […]
(§5) α corresponds to the fungicidal infection of the treated plants in % and β corresponds to the fungicidal infection of the untreated (control) plants in %
(§6) An efficacy of 0 means that the infection level of the treated plants corresponds to that of the untreated control plants; an efficacy of 100 means that the treated plants are not infected.
(§7) The expected efficacies of active compound combinations were determined using Colby's formula (Colby, S. R. “Calculating synergistic and antagonistic responses of herbicide combinations”, Weeds, 15, pp. 20-22, 1967) and compared with the observed efficacies.
(§8) E=x+y−x·y/100 Colby's formula • E expected efficacy, expressed in % of the untreated control, when using the mixture of the active compounds A and B at the concentrations a and b • x efficacy, expressed in % of the untreated control, when using the active compound A at the concentration a • y efficacy, expressed in % of the untreated control, when using the active compound B at the concentration b
Activity Against Gray Mold on Bell Pepper Leaves Caused by Botrytis cinerea, 1 Day Protective Application
Bell pepper seedlings of the cultivar “Neusiedler Ideal Elite” were, after 2-3 leaves were well developed, sprayed to runoff point with an aqueous suspension in the active compound concentrations stated below. The next day, the treated plants were inoculated with a spore suspension of Botrytis cinerea which comprised 1.7×10^6 spores/ml in a 2% strength aqueous biomalt solution. The test plants were then placed in a dark climatized chamber at 22 to 24° C. and high atmospheric humidity. After 5 days, the extent of the fungal infection on the leaves could be determined visually in %.

Alternaria solani = assay: Activity against early blight of tomato caused by Alternaria solani (protective spray on potted tomato plants); conditions: read after 5 days
Method: as §1, §2, §3, §4, §5, §6, §7, §8
Activity Against Early Blight of Tomato Caused by Alternaria solani
Leaves of potted tomato plants were sprayed to runoff point with an aqueous suspension having the active compound concentration stated below. The next day, the leaves were infected with an aqueous spore suspension of Alternaria solani in a 2% strength biomalt solution having a density of 0.17×10^6 spores/ml. The plants were then placed in a water vapor-saturated chamber at temperatures between 20 and 22° C. After 5 days, the disease on the untreated but infected control plants had developed to such an extent that the infection could be determined visually in %.

[1] = system: Pyrenophora [syn. Drechslera] teres; assay: Activity against net blotch of barley caused by Pyrenophora teres, 1 day protective application; conditions: barley seedlings, efficacy in % of untreated control, read after 6 days
Method: as §1, §2, §3, §4, §5, §6, §7, §8
Activity Against Net Blotch of Barley Caused by Pyrenophora teres, 1 Day Protective Application
Leaves of potted barley seedlings were sprayed to runoff point with an aqueous suspension having the active compound concentration stated below. 24 hours after the spray coating had dried on, the test plants were inoculated with an aqueous spore suspension of Pyrenophora [syn. Drechslera] teres, the net blotch pathogen. The test plants were then placed in a greenhouse at temperatures between 20 and 24° C. and at 95 to 100% relative atmospheric humidity. After 6 days, the extent of the development of the disease was determined visually in % infection of the entire leaf area.

[2] = single active compound 63 mg/l, efficacy in % of untreated control (Abbot)

Cc1cc(C)nc(Nc2ccccc2)n1 [pyrimethanil, 4,6-dimethylpyrimidin-2-ylphenylamine]
Efficacy (% of untreated control) (Botrytis cinerea; single active compound 4 mg/l): 0%
Efficacy (% of untreated control) (Botrytis cinerea; single active compound 63 mg/l): 0%

O=c1c2cc(F)ccc2nc(-n2cncn2)n1-c1ccc(Cl)cc1Cl [fluquinconazole, 3-(2,4-dichlorophenyl)-6-fluoro-2-[1,2,4]-triazol-1-yl-3H-quinazolin-4-one]
Efficacy (% of untreated control, Abbott) (Alternaria solani; single active compound 4 mg/l, efficacy in % of untreated control): 0%

N#Cc1c(Cl)c(Cl)c(Cl)c(C#N)c1Cl [chlorothalonil, 2,4,5,6-tetrachloroisophthalonitrile]
Efficacy (% of untreated control, Abbott) (Alternaria solani; [2]): 0%

zinc ammoniate ethylenebis(dithiocarbamate) [metiram]
Efficacy (% of untreated control, Abbott) (Alternaria solani; [2]): 0%

COc1ccc(C(=CC(=O)N2CCOCC2)c2ccc(Cl)cc2)cc1OC [dimethomorph, 3-(4-chlorophenyl)-3-(3,4-dimethoxyphenyl)-1-morpholin-4-yl-propenone]
Efficacy (% of untreated control) ([1]; single active compound 4 mg/l): 0%

Cn1cc(C(=O)Nc2ccccc2-c2ccccc2C(F)(F)F)c(C(F)(F)F)n1 [No. 57, N-(2′-trifluoromethylbiphen-2-yl)-1-methyl-3-trifluoromethyl-1H-pyrazole-4-carboxamide]
Efficacy (% of untreated control) ([1]; single active compound 16 mg/l): 41%
Efficacy (% of untreated control) (Botrytis cinerea; single active compound 4 mg/l): 0%
Efficacy (% of untreated control) (Botrytis cinerea; single active compound 16 mg/l): 0%
Efficacy (% of untreated control) (Botrytis cinerea; single active compound 63 mg/l): 22%

Cn1cc(C(=O)Nc2ccccc2-c2ccccc2C(F)(F)F)c(C(F)F)n1 [No. 40, N-(2′-trifluoromethylbiphen-2-yl)-1-methyl-3-difluoromethyl-1H-pyrazole-4-carboxamide]
Efficacy (% of untreated control, Abbott) (Alternaria solani; [2]): 25%
Efficacy (% of untreated control) ([1]; single active compound 4 mg/l): 18%
Efficacy (% of untreated control) (Botrytis cinerea; single active compound 16 mg/l): 11%
Efficacy (% of untreated control) (Botrytis cinerea; single active compound 63 mg/l): 44%

COC(=O)N(OC)c1ccccc1COc1ccn(-c2ccc(Cl)cc2)n1 [pyraclostrobin, methyl N-{2-[1-(4-chlorophenyl)-1H-pyrazol-3-yloxymethyl]phenyl}(N-methoxy)carbamate]
Efficacy (% of untreated control) (Botrytis cinerea; single active compound 16 mg/l): 11%

COc1cc(C)c(C(=O)c2c(OC)ccc(Br)c2C)c(OC)c1OC [metrafenone, 3′-bromo-2,3,4,6′-tetramethoxy-2′,6-dimethylbenzophenone]
Efficacy (% of untreated control) (Botrytis cinerea; single active compound 16 mg/l): 0%

CO/N=C(/C(=O)OC)c1ccccc1COc1ccccc1C [kresoximmethyl, methyl (E)-methoxyimino[α-(o-tolyloxy)-o-tolyl]acetate]
Efficacy (% of untreated control) (Botrytis cinerea; single active compound 16 mg/l): 0%
Efficacy (% of untreated control) (Botrytis cinerea; single active compound 63 mg/l): 0%

CC(C)(C)C(O)(CCc1ccc(Cl)cc1)Cn1cncn1 (centres unmarked) [tebuconazole, 1-(4-chlorophenyl)-4,4-dimethyl-3-[1,2,4]triazol-1-ylmethylpentan-3-ol]
Efficacy (% of untreated control) ([1]; single active compound 4 mg/l): 0%

Fc1ccc([C@]2(Cn3cncn3)O[C@H]2c2ccccc2Cl)cc1 (racemic) [epoxiconazole, (2RS,3SR)-1-[3-(2-chlorophenyl)-2,3-epoxy-2-(4-fluorophenyl)propyl]-1H-1,2,4-triazole]
Efficacy (% of untreated control) ([1]; single active compound 1 mg/l): 0%
